Experimental data: the RepoRT retention time repository (doi:10.1007/s00216-015-8540-6)

Experiment: Waters Atlantis T3, 100 × 2.1 mm, 3 µm, 0.1 mL/min, estimated dead time 2.2 min; A: water + 0.01% formic acid; B: methanol + 0.01% formic acid; gradient (min/%B) 0/5 3/5 20/100 29/100
Settings: stereoisomer not certain

Question: Which LC retention time does the source give for `CC(C)NCC(O)COc1ccc(CC(N)=O)cc1` (stereo unspecified) here?
Answer: 11.3 min

Question: With `COc1ccc2c3c1OC1C(O)C=CC4C(C2)N(C)CCC341` (stereo unspecified) as the compound, how does the LC retention time read?
Answer: 11.8 min

Question: For `CN(C)C(=N)N=C(N)N`, which LC retention time is on record?
Answer: 3.04 min

Question: Which LC retention time does the source give for `CCC1OC(=O)CC(O)C(C)C(OC2OC(C)C(OC3CC(C)(O)C(O)C(C)O3)C(N(C)C)C2O)C(CC=O)CC(C)C(=O)C=CC(C)=CC1COC1OC(C)C(O)C(OC)C1OC` (stereo unspecified) here?
Answer: 17.6 min

Question: For `CN1C2CCC1C(C(=O)O)C(OC(=O)c1ccccc1)C2` (stereo unspecified), which LC retention time is on record?
Answer: 15.7 min

Question: With `Cc1cc2c(s1)Nc1ccccc1N=C2N1CCN(C)CC1` as the compound, how does the LC retention time read?
Answer: 12.6 min

Question: Which LC retention time does the source give for `CCN(CC)CC(=O)Nc1c(C)cccc1C` here?
Answer: 13.4 min

Question: With `CCC(C)(C)C(=O)OC1CC(C)C=C2C=CC(C)C(CCC3CC(O)CC(=O)O3)C21` (stereo unspecified) as the compound, how does the LC retention time read?
Answer: 27.1 min

Question: Which LC retention time does the source give for `COC(=O)C1C(OC(=O)c2ccccc2)CC2CCC1N2C` (stereo unspecified) here?
Answer: 14.3 min

Question: Which LC retention time does the source give for `CCC1OC(=O)C(C)C(OC2CC(C)(OC)C(O)C(C)O2)C(C)C(OC2OC(C)CC(N(C)C)C2O)C(C)(O)CC(C)CN(C)C(C)C(O)C1(C)O` (stereo unspecified) here?
Answer: 18.7 min

Question: With `CNC(C)Cc1ccccc1` (stereo unspecified) as the compound, how does the LC retention time read?
Answer: 12.8 min

Question: With `CCOc1cc(OC)c(OCC)cc1CC(C)N` (stereo unspecified) as the compound, how does the LC retention time read?
Answer: 3.15 min

Question: With `CNC(C)Cc1ccc2c(c1)OCO2` (stereo unspecified) as the compound, how does the LC retention time read?
Answer: 13 min

Question: Which LC retention time does the source give for `CC1=C(C(=O)O)N2C(=O)C(NC(=O)C(N)c3ccc(O)cc3)C2SC1` (stereo unspecified) here?
Answer: 11.8 min

Question: For `CCC(C(N)=O)N1CCCC1=O` (stereo unspecified), which LC retention time is on record?
Answer: 13.7 min

Question: With `CN(C)CCC=C1c2ccccc2COc2ccccc21` as the compound, how does the LC retention time read?
Answer: 16.7 min

Question: For `COCCc1ccc(OCC(O)CNC(C)C)cc1` (stereo unspecified), which LC retention time is on record?
Answer: 11.2 min

Question: Which LC retention time does the source give for `CC(=O)OC1C=CC2C3Cc4ccc(O)c5c4C2(CCN3C)C1O5` (stereo unspecified) here?
Answer: 12.5 min

Question: Which LC retention time does the source give for `CC(C)NCC(O)COc1cccc2ccccc12` (stereo unspecified) here?
Answer: 16.2 min

Question: Which LC retention time does the source give for `CNCCC=C1c2ccccc2CCc2ccccc21` here?
Answer: 18 min

Question: For `CC1CC2C(C(O)CC3(C)C2CCC3(O)C(=O)CO)C2(C)C=CC(=O)C=C12` (stereo unspecified), which LC retention time is on record?
Answer: 21.4 min

Question: With `COc1ccc2c3c1OC1C(=O)CCC4(O)C(C2)N(C)CCC314` (stereo unspecified) as the compound, how does the LC retention time read?
Answer: 12.1 min

Question: With `CNC(=C[N+](=O)[O-])NCCSCc1ccc(CN(C)C)o1` as the compound, how does the LC retention time read?
Answer: 11.4 min

Question: For `CC(=O)Nc1ccc(O)cc1`, which LC retention time is on record?
Answer: 13.3 min

Question: For `Cc1noc(NS(=O)(=O)c2ccc(N)cc2)c1C`, which LC retention time is on record?
Answer: 14.6 min

Question: With `CN(C)C1C(=O)C(C(N)=O)=C(O)C2(O)C(=O)C3=C(O)c4c(O)cccc4C(C)(O)C3C(O)C12` (stereo unspecified) as the compound, how does the LC retention time read?
Answer: 14.8 min

Question: With `CC1(C)OC2COC3(COS(N)(=O)=O)OC(C)(C)OC3C2O1` (stereo unspecified) as the compound, how does the LC retention time read?
Answer: 18.3 min

Question: For `CN(C)CCC=C1c2ccccc2CCc2ccccc21`, which LC retention time is on record?
Answer: 17.9 min

Question: Which LC retention time does the source give for `CCCCCc1cc(O)c2c(c1C(=O)O)OC(C)(C)C1CCC(C)=CC21` (stereo unspecified) here?
Answer: 26.9 min

Question: For `COC12CCC3(CC1C(C)(O)C(C)(C)C)C1Cc4ccc(O)c5c4C3(CCN1CC1CC1)C2O5` (stereo unspecified), which LC retention time is on record?
Answer: 16.8 min

Question: For `CC(N)C(O)c1ccccc1` (stereo unspecified), which LC retention time is on record?
Answer: 10.9 min

Question: For `CC12CCC(=O)C=C1CCC1C2C(O)CC2(C)C1CCC2(O)C(=O)CO` (stereo unspecified), which LC retention time is on record?
Answer: 20.6 min

Question: With `CN1CCC23c4c5ccc(O)c4OC2C(O)C=CC3C1C5` (stereo unspecified) as the compound, how does the LC retention time read?
Answer: 9.52 min

Question: For `CC(C(=O)O)c1cccc(C(=O)c2ccccc2)c1` (stereo unspecified), which LC retention time is on record?
Answer: 21.8 min

Question: For `NC(=O)N1c2ccccc2C=Cc2ccccc21`, which LC retention time is on record?
Answer: 20.2 min

Question: With `CN1CCN2c3ncccc3Cc3ccccc3C2C1` (stereo unspecified) as the compound, how does the LC retention time read?
Answer: 14.6 min

Question: With `CC1=C(C(=O)O)N2C(=O)C(NC(=O)C(N)c3ccccc3)C2SC1` (stereo unspecified) as the compound, how does the LC retention time read?
Answer: 11.8 min

Question: Which LC retention time does the source give for `CN1CCN2c3ncc(O)cc3Cc3ccccc3C2C1` (stereo unspecified) here?
Answer: 13.6 min

Question: For `CC12CCC(=O)C=C1CCC1C2C(=O)CC2(C)C1CCC2(O)C(=O)CO` (stereo unspecified), which LC retention time is on record?
Answer: 20 min

Question: For `CCC1OC(=O)C(C)C(OC2CC(C)(OC)C(O)C(C)O2)C(C)C(OC2OC(C)CC(N(C)C)C2O)C(C)(OC)CC(C)C(=O)C(C)C(O)C1(C)O` (stereo unspecified), which LC retention time is on record?
Answer: 18.7 min

Question: With `COc1ccc(C(CN(C)C)C2(O)CCCCC2)cc1` (stereo unspecified) as the compound, how does the LC retention time read?
Answer: 15.7 min

Question: Which LC retention time does the source give for `CN(C)C1C(=O)C(C(N)=O)=C(O)C2(O)C(=O)C3=C(O)c4c(O)cccc4C(C)(O)C3CC12` (stereo unspecified) here?
Answer: 14.5 min

Question: For `CC(=O)C1CCC2C3CCC4=CC(=O)CCC4(C)C3CCC12C` (stereo unspecified), which LC retention time is on record?
Answer: 24.8 min

Question: Which LC retention time does the source give for `CC1(C)SC2C(NC(=O)C(N)c3ccc(O)cc3)C(=O)N2C1C(=O)O` (stereo unspecified) here?
Answer: 11.2 min

Question: With `C=CC1(C)CC(OC(=O)CSCCN(CC)CC)C2(C)C(C)CCC3(CCC(=O)C32)C(C)C1O` (stereo unspecified) as the compound, how does the LC retention time read?
Answer: 17.3 min

Question: For `O=C1CN=C(c2ccccc2)c2cc([N+](=O)[O-])ccc2N1`, which LC retention time is on record?
Answer: 20.4 min

Question: For `COc1cccc(C2(O)CCCCC2CN(C)C)c1` (stereo unspecified), which LC retention time is on record?
Answer: 14.2 min

Question: Which LC retention time does the source give for `CCN(CC)C(=O)C1C=C2c3cccc4[nH]cc(c34)CC2N(C)C1` (stereo unspecified) here?
Answer: 15.1 min

Question: With `CCC1(c2ccccc2)C(=O)NCNC1=O` as the compound, how does the LC retention time read?
Answer: 17.1 min

Question: Which LC retention time does the source give for `CCOP(=O)(Sc1ccccc1)Sc1ccccc1` here?
Answer: 16.2 min

Question: Which LC retention time does the source give for `CC(=O)Oc1ccc2c3c1OC1C(OC(C)=O)C=CC4C(C2)N(C)CCC341` (stereo unspecified) here?
Answer: 14.1 min

Question: Which LC retention time does the source give for `Cc1nnc(SCC2=C(C(=O)O)N3C(=O)C(NC(=O)Cn4cnnn4)C3SC2)s1` (stereo unspecified) here?
Answer: 17.6 min

Question: With `Cn1c([N+](=O)[O-])cnc1COC(N)=O` as the compound, how does the LC retention time read?
Answer: 13.2 min

Question: For `Cn1c(=O)c2c(ncn2C)n(C)c1=O`, which LC retention time is on record?
Answer: 15.2 min

Question: For `CCn1cc(C(=O)O)c(=O)c2cc3c(cc21)OCO3`, which LC retention time is on record?
Answer: 18.3 min

Question: Which LC retention time does the source give for `CC(N)Cc1ccccc1` (stereo unspecified) here?
Answer: 12.6 min

Question: For `Cc1ncc([N+](=O)[O-])n1CCO`, which LC retention time is on record?
Answer: 13.3 min

Question: With `CN(C)CCCN1c2ccccc2CCc2ccccc21` as the compound, how does the LC retention time read?
Answer: 17.6 min

Question: With `COc1cc(Cc2cnc(N)nc2N)cc(OC)c1OC` as the compound, how does the LC retention time read?
Answer: 12.9 min

Question: For `CCCCC(=O)N(Cc1ccc(-c2ccccc2-c2nn[nH]n2)cc1)C(C(=O)O)C(C)C` (stereo unspecified), which LC retention time is on record?
Answer: 24.4 min

Question: For `CNC(C)C(O)c1ccccc1` (stereo unspecified), which LC retention time is on record?
Answer: 11.7 min

Question: For `CCNC(C)Cc1ccc2c(c1)OCO2` (stereo unspecified), which LC retention time is on record?
Answer: 13.4 min

Question: For `CCC(=O)C(CC(C)N(C)C)(c1ccccc1)c1ccccc1` (stereo unspecified), which LC retention time is on record?
Answer: 17.6 min

Question: With `CN=C(NC#N)NCCSCc1nc[nH]c1C` as the compound, how does the LC retention time read?
Answer: 11.5 min

Question: For `CC(N)Cc1ccc2c(c1)OCO2` (stereo unspecified), which LC retention time is on record?
Answer: 12.9 min

Question: For `COc1ccc2nc(S(=O)Cc3ncc(C)c(OC)c3C)[nH]c2c1` (stereo unspecified), which LC retention time is on record?
Answer: 18.7 min
